Reference: patent US20120046457A1, “PREPARATION OF DECITABINE” (DR. REDDY'S LABORATORIES, INC., priority 2009, published 2012)

Experiments:
[1] = cited from earlier work
[2] = Storage stability of packaged anhydrous crystalline decitabine (TGA weight loss); assay type: physicochemical; settings: 40±2° C., relative humidity 75±5%, described packaging
Description: Thermogravimetric analyses reported herein for decitabine were carried out using a SHIMADZU, DTG-60, Thermogravimetric Analyzer with a ramp of 10° C./minute up to 250° C.
In embodiments, the present application provides a storage system for decitabine. A storage system of the present application comprises at least one sealed polymeric bag, (e.g., a transparent or opaque polyethylene bag having a thickness of about 0.1 mm to about 0.5 mm) or a combination of such bags, which, if desired, may be sealed inside a laminated aluminum bag. An oxygen absorbent and a moisture absorbent (or desiccant), may be included between one or more of such bags. Finally, the packaged material is stored in sealed HDPE containers.
Anhydrous crystalline decitabine with an initial XRD pattern substantially in accordance with FIG. 4 remains stable for a period at least about 4 months, or about 6 months, when stored at 40±2° C. and a relative humidity of 75±5% under the packaging conditions described above. The TGA weight losses of representative samples stored under these conditions are tabulated below.

[3] = Hygroscopicity of decitabine (hygroscopic stability); assay type: physicochemical; settings: for Moisture (Wt. %): room temperature
Description: Decitabine obtained from Example 10 is tested for hygroscopic stability. Samples are analyzed as initially prepared, and at intervals after 1 day and 7 days of storage at room temperature; the results are tabulated below.

| Compound | stability ([1]; room temperature) | period for which it remains stable [2] | TGA Weight Loss (%) ([2]; storage time 1 month) | TGA Weight Loss (%) ([2]; storage time 2 months) | TGA Weight Loss (%) ([2]; storage time 3 months) | TGA Weight Loss (%) ([2]; storage time 4 months) | Moisture (Wt. %) ([3]; 40-50% RH, 1 day) | Moisture (Wt. %) ([3]; 40-50% RH, 7 days) | Moisture (Wt. %) ([3]; 40-50% RH, initial) | Moisture (Wt. %) ([3]; 90% RH, 1 day) | Moisture (Wt. %) ([3]; 90% RH, 7 days) | Moisture (Wt. %) ([3]; 90% RH, initial) | moisture content acquired ([3]; exposed to the atmosphere) | solid form after moisture uptake ([3]; exposed to the atmosphere) | moisture at equilibrium ([1]; exposed to humidity, monohydrate formed) [%] |
| --- | --- | --- | --- | --- | --- | --- | --- | --- | --- | --- | --- | --- | --- | --- | --- |
| Nc1ncn([C@H]2C[C@H](O)[C@@H](CO)O2)c(=O)n1 [Decitabine monohydrate] | stable | – | – | – | – | – | – | – | – | – | – | – | – | – | – |
| Nc1ncn([C@H]2C[C@H](O)[C@@H](CO)O2)c(=O)n1 [Decitabine, 4-amino-1-(2-deoxy-β-D-erythropentofuranosyl)-1,3,5-triazin-2(1H)-one] | – | at least 4 months | 0.07 | 0.15 | 0.26 | 0.16 | 6.63 | 7.12 | 0.18 | 5.46 | 7.17 | 0.18 | up to 1 mole | change to a monohydrate form | 7 |
